Entries after “also recorded” stand apart in the source; their conditions may differ.
Legend:
HL-525 cells [1] = assay: Northern analysis of c-Jun mRNA; format: cell-based, human
Description: (§1) Cell culture. Clone HL-205 was isolated from the human HL-60 myeloid leukemia cell line. The phorbol ester-resistant variant of HL-60 cells, designated HL-525, was isolated by exposing wild-type cells to low concentrations of 12-0-tetradecanoylphorbol-13-acetate (TPA; 0.5 to 3 nM) for 102 passages. These cells were maintained in RPMI 1640 medium containing 20% fetal bovine serum (FBS) with 1 mM L-glutamine, 100 U/ml penicillin and 100 μg/ml streptomycin. Irradiation was performed at room temperature using a Gamma cell 1000 (Atomic Energy at Canada Ltd., Ontario) with a ^137CS source emitting at a fixed dose rate of 14.3 Gray (Gy)/min as determined by dosimetry.
(§2) Isolation and analysis of RNA. Total cellular RNA was purified by the guanidine isothiocyanate-cesium chloride technique. The RNA was analyzed by electrophoresis through 1% agarose-formaldehyde gels, transferred to nitrocellulose filters, and hybridized to the following 32P-labeled DNA probes: 1) the 1.8-kb BamHI/EcoRI insert of a human c-Jun gene purified from a pBluescript SK(+) plasmid; 2) the 1.5-kb EcoRI fragment of the murine Jun-B cDNA from the p465.20 plasmid; 3) Jun-D; 4) the 0.9-kb ScaI/NcoI insert of human c-fos gene purified from the pc-fos-1 plasmid; 5) the 2.0-kb PstI insert of a chicken β-actin gene purified from the pA1 plasmid; and 6) the 1.9-kb BamHI/PstI insert of a human TNF cDNA purified from the pE4 plasmid. Hybridizations were performed at 42° C. for 24 h in 50% (v/v) formamide, 2×SSC, 1×Denhardt's solution, 0.1% SDS, and 200 μg/ml salmon sperm DNA. The filters were washed twice in 2×SSC-0.1% SDS at room temperature and then in 0.1×SSC-0.1% SDS at 60° C. for 1 hour.

HL-205 cells = assay: Northern analysis of c-Jun mRNA; format: cell-based, human
Description: as §1, §2

HL-525 cells [2] = assay: Nuclear run-on assay of c-Jun transcription; format: cell-based, human; conditions: radiation alone 4-fold increase
Description: Nuclear run-on assays. Nuclei were isolated from 10^8 cells and suspended in 100 μl glycerol buffer (50 mM Tris-HCl, pH 8.3, 40% glycerol, 5 mM MgCl2, and 0.1 mM EDTA). An equal volume of reaction buffer (10 mM Tris-HCl, ph 8.0, 5 mM MgCl2, 100 mM KCl, 1 mM ATP, 1 mM CTP, 1 mM GTP, and 5 mM dithiothreitol) was added to the nuclei in suspension and incubated at 26° C. for 30 min with 250 μCi [α-^32P]UTP (3000 Ci/mmol; Dupont, Boston, Mass.). The nuclear RNA was isolated as described and hybridized to the following DNAs: 1) a PstI digest of the pA1 plasmid containing a fragment of the chicken β-action gene; and 2) a BamHI/EcoRI digest of the pBluescript SK(+) plasmid containing a fragment of the human c-Jun gene. The digested DNAs were run in 1% agarose gels and transferred to nitrocellulose filters. Hybridizations were performed with 10^7 cpm of ^32P-labeled RNA/ml in 10 mM Tris-HCl, ph 7.5, 4×SSC, 1 mM EDTA, 0.1% SDS, 2×Denhardt's solution, 40% formamide, and 100 μg/ml yeast tRNA for 72 h at 42° C. The filters were washed in: a) 2×SSC-0.1% SDS at 37° C. for 30 min; b) 200 ng/ml RNase A in 2×SSC at room temperature for 5 min; and c) 0.1×SSC-0.1% SDS at 42° C. for 30 min.

c-Jun gene expression = conditions: other studies; cited from earlier work
[3] = tested on: Egr-1 and Jun transcripts in cell lines 293 and SQ-20B; assay: Northern blot of Egr-1 and Jun transcripts after x-irradiation with inhibitors; format: cell-based; conditions: for effect on x-ray-induced increase in Egr-1 and Jun transcripts: treatment prior to irradiation
Description: Cell line SQ-20B was pretreated with 1 μM TPA for 40 hours to down regulate PKC and then stimulated with TPA, serum, or x-ray (20 Gy). Controls included x-ray without TPA pretreatment, TPA (50 nM) without TPA pretreatment and untreated cells. RNA was isolated after one hour and hybridized to Egr-1. SQ-20B cells were preincubated with 100 μM H7 (1-(5-isoquinolinylsulfonyl)-2-methyl piperazine) or 100 μM HA1004 (N-[2-methyl-amino]ethyl)-5-isoquino-linesulfonamide) (Seikagaku America, Inc., St. Petersberg, Fla.) for 30 minutes or TPA pretreatment (1 μM) for 40 hours and followed by exposure to 20 Gy x-irradiation. RNA was extracted one hour after irradiation. Positive control cells treated under the same conditions but in the absence of inhibitor also received 20 Gy, while negative control cells received neither H7 nor X-ray. RNA was extracted at one hour after 20 Gy without inhibitor. Northern blots were hybridized to Egr-1 or 7S. 293 cells pretreated with the above inhibitors were irradiated, RNA was extracted after 3 hours and the Northern blot was hybridized to Jun and 7S probes.

RIT-3 cells = assay: GAL4-Jun chimeric / G5BCAT co-transfection CAT assay; format: cell-based, human
Excerpt: HeLa and RIT-3 cells were transfected with two plasmids. Plasmid pSG-Jun5-253 contained the SV40 promoter (not transcriptionally responsive to radiation) upstream of an encoding region that encoded a chimeric protein (GAL4-Jun) comprising a sequence for Δ, A1, and A2 (Baichwal, 1990) and the DNA binding domain of the yeast GAL4 gene (the DNA binding domain of Jun was replaced with the DNA binding domain of the GAL4 gene, Baichwal, 1990). A second plasmid, G5BCAT was constructed to contain the DNA sequence that binds Gal4 protein placed 5′ of the Elb TATA box and upstream of the CAT reporter gene (Baichwal, 1990).
Two plasmids were transfected into HeLa and RIT-3 cells to study activation of the transcriptional potential of Jun protein following irradiation. pSG-Jun5-253 contains the SV40 promoter, which is not transcriptionally responsive to radiation, upstream of the coding sequence for Δ, A1, and A2 (Baichwal, 1990). The DNA binding domain of Jun was replaced with the DNA binding domain of the yeast GAL4 gene which encodes a protein involved in yeast transcriptional regulation (Baichwal, 1990). A second plasmid, G5BCAT contains the DNA sequence which binds Gal4 protein placed 5′ of the E1b TATA box upstream of the CAT reporter gene (Baichwal, 1990). […]

cell line HNSCC-68 = assay: Colony-forming radiation-survival assay with TNF-α; format: cell-based, human; conditions: nonlethal TNF-α 10 units/ml
cell line STSAR-5 = assay: Colony-forming radiation-survival assay with TNF-α; format: cell-based, human; conditions: STSAR-5, 100-700 cGy
[4] = tested on: 12 human epithelial tumor cell lines; conditions: cited from earlier work
[5] = tested on: Cell lines STSAR-13 and STSAR-43; assay: Colony-forming radiation-survival assay with TNF-α; format: cell-based, human
cell line SQ-20B = assay: Colony-forming radiation-survival assay with TNF-α; format: cell-based, human
cell line STSAR-33 = assay: Colony-forming radiation-survival assay with TNF-α; format: cell-based, human
[6] = tested on: TNF-α-producing sarcomas (STSAR-5, -13, -33, and -43)

## CC(=O)N[C@@H](CS)C(=O)O [NAC, N-acetyl-L-cysteine]
HL-525 cells [1]
  effect on H2O2-induced c-Jun expression: similarly inhibited
  effect on ara-C-induced c-Jun gene induction: no detectable effect on induction of the c-Jun gene; also recorded: no detectable effect on ara-C-induced increases in c-Jun transcripts
  effect on x-ray-induced c-Jun expression: inhibited
HL-205 cells; 30 mM
  effect on constitutive levels of c-Jun transcripts: little if any effect on constitutive levels of c-Jun transcripts
  inhibition of x-ray-induced increases in c-Jun expression: over 90%
HL-525 cells [2]
  inhibition of radiation-increased rate of c-Jun transcription: ~90%

## OO [Plasmid H2O2, H2O2]
HL-525 cells [1]
  effect of agent alone on c-Jun expression: transiently induced c-Jun expression; also recorded: increased c-Jun expression

## CC1CNCCN1S(=O)(=O)c1cccc2cnccc12 (centres unmarked) [Plasmid H7, 1-(5-isoquinolinylsulfonyl)-2-methyl piperazine]
c-Jun gene expression
  effect on x-ray-induced c-Jun expression: block x-ray-induced c-Jun gene product expression; also recorded: inhibited
[3]
  effect on x-ray-induced increase in Egr-1 and Jun transcripts: attenuated the increase in Egr-1 and Jun transcripts; also recorded: attenuation of Egr-1 and Jun gene induction by ionizing radiation
RIT-3 cells; added to RIT-3 cells transfected with pSG-Jun5-235 and G5BCAT
  effect on x-ray induced increase in CAT activity: abrogated the x-ray induced increase in CAT activity

## CCCCCCCCCCCCCC(=O)O[C@@H]1[C@@H](C)[C@@]2(O)[C@@H](C=C(CO)C[C@]3(O)C(=O)C(C)=C[C@@H]23)[C@H]2C(C)(C)[C@]12OC(C)=O [TPA, 12-0-tetradecanoylphorbol-13-acetate]
[3]
  effect on x-ray-induced increase in Egr-1 and Jun transcripts: attenuated the increase in Egr-1 and Jun transcripts; also recorded: attenuation of Egr-1 and Jun gene induction by ionizing radiation
HL-525 cells [1]
  effect on expression of Jun-B, Jun-D, c-fos, fos-B: little if any effect on expression of these genes
  effect on x-ray-induced c-Jun expression: blocks x-ray-induced increases in c-Jun expression
HL-525 cells [1]; pretreatment
  block of H2O2-induced increases in c-Jun expression: 80%
HL-525 cells [1]; pretreatment 36-39 hours
  block of x-ray induced increases in c-Jun expression: over 75%
HL-205 cells; agent alone
  effect on c-Jun expression: increases in c-Jun expression that were detectable at 6 hours and reached maximal levels by 24 hours
RIT-3 cells; HeLa and RIT-3 transfectants with pSG-Jun5-253 and G5BCAT
  increase in CAT activity following TPA stimulation: 3.5 fold

## CCC/C=C/C=C/C(=O)O[C@H]1/C(=C/C(=O)OC)C[C@H]2C[C@H]([C@@H](C)O)OC(=O)C[C@H](O)C[C@@H]3C[C@H](OC(C)=O)C(C)(C)[C@](O)(C[C@@H]4C/C(=C/C(=O)OC)C[C@H](/C=C/C(C)(C)[C@]1(O)O2)O4)O3 [bryostatin]
HL-525 cells [1]
  effect on H2O2-induced c-Jun expression: no detectable effect
  effect on x-ray-induced c-Jun expression: little if any effect on the induction of c-Jun transcripts by ionizing radiation

## C[C@@H]1C[C@@H]([C@H](O)CC2CC(=O)NC(=O)C2)C(=O)[C@@H](C)C1 [cycloheximide]
[3]; 293 cells pretreated with CHI
  Jun mRNA after irradiation in pretreated cells: persistent elevation of Jun mRNA at 6 hours
[3]; SQ-20B cells pretreated with CHI
  Egr-1 mRNA after irradiation in pretreated cells: persistent elevation of Egr-1 at 3 hours
[3]; normalized to 7S, no irradiation
  effect of treatment alone on Egr-1 and Jun transcripts: low but detectable increase in Egr-1 and Jun transcripts
[3]
  effect on x-ray-induced increase in Egr-1 and Jun transcripts: superinduction of Jun and Egr-1

## TNF-α
Cell line HNSCC-68
  effect on radiation killing: enhanced radiation killing
SQ-20B and SCC-61 cells
  cytotoxicity: cytotoxic
SQ-20B and SCC-61 cells; 1000 units/ml
  reduction of plating efficiency (PE): 60-80%
Cell line STSAR-5
  interaction between TNF-α and radiation: additive
[4]
  concentrations with cytotoxic effects: 10 to 1000 units/ml
[4]; seven of those ten cell lines
  killing by TNF and x-rays combined: synergistic or additive killing
[5]
  interaction between TNF-α and radiation: no interaction was observed
Cell line SQ-20B; SQ-20B, FIG. 1B
  killing with TNF-α alone: 85%
Cell line SQ-20B; TNF-α 1000 units/ml added 24 hr before x-rays, 239 cGy without TNF-α
  radiosensitivity (D0): 130.4 cGy
Cell line SQ-20B; TNF-α added after irradiation
  effect on cell killing by radiation: did not enhance cell killing by radiation
Cell line STSAR-33; STSAR-33, TNF-α 10 units/ml
  interaction between TNF-α and radiation: synergistic; also recorded: enhanced killing by radiation
Cell line STSAR-33; TNF-α 10 units/ml added 20 hr before irradiation, 80.4 cGy without TNF-α
  radiosensitivity (D0): 60.4 cGy
Cell line STSAR-33; TNF-α at 1000 units/ml
  plating efficiency (PE): 30%
[6]
  cytotoxicity: cytotoxic
[6]; 1000 units/ml
  reduction of plating efficiency (PE): 60-90%

— patent publication US6605712B1, “Gene transcription and ionizing radiation: methods and compositions” (Arch Development Corporation, priority 1990, dated 2003)
